Data from PMC8262356, “SLC26A6-selective inhibitor identified in a small-molecule screen blocks fluid absorption in small intestine” (JCI Insight, 2021).

Tests used:
slc26a2 = target: T1, slc26a2 (Mus musculus, UniProt Q62273); test: Selectivity: Cl-/I- exchange in 293T/17 cells transfected with slc26a2 and YFP; assay type: cell-based; conditions: 25 μM, 10 min preincubation
T1 construct: Full -length slc26a2 cDNAs; expressed in transfected cells; host or cells: 293 T/17 cells, transient transfection with pIRES-HIF vector (IRES-YFP, not fused)
T1 sequence (Q62273 1-739): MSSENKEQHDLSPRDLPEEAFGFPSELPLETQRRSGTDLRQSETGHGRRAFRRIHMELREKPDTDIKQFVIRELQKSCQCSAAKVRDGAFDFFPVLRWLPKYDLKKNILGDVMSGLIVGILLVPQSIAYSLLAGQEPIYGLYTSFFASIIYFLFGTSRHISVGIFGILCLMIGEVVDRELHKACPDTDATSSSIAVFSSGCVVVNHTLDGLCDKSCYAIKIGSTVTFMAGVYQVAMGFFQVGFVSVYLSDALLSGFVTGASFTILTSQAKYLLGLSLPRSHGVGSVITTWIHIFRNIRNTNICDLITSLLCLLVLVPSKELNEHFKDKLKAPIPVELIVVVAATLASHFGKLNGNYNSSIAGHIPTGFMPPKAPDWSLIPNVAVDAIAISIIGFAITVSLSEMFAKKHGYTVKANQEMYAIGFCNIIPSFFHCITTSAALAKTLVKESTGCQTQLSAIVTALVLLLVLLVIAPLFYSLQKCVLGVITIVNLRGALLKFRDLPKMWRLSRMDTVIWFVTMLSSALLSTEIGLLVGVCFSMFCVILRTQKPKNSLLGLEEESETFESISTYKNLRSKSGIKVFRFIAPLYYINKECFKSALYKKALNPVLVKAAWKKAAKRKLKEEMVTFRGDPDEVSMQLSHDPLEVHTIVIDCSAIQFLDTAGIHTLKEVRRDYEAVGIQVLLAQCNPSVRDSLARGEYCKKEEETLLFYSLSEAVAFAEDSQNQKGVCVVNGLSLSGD
Experimental: YFP-based cellular assays of slc26a3, slc26a4, SLC26A9, and TMEM16A function were performed as described previously ([7]). Slc26a1 and slc26a2 assays were done in transfected HEK 293 cells (see Supplemental Methods for details). Niflumic acid was used as a positive control for SLC26A isoforms ([7]). For TMEM16A, the selective small-molecule inhibitor TMinh-23 was used as a positive control ([28]). The activities of ENaC, CFTR, and CaCC were determined using well-differentiated HBE cells as described previously ([13]). Cl^–/HCO3^– exchange was measured as described previously ([7], [10], [11]). Briefly, cell cytoplasm was labeled with the pH-sensitive fluorescent dye BCECF-AM (Invitrogen), and Cl^–/HCO3^– exchange was measured in response to addition of a gluconate-containing solution to drive exchange of cytoplasmic Cl^– for extracellular HCO3^–, producing cytoplasmic alkalinization.
Slc26a1 and slc26a2 cDNA constructs
The complementar y DNA sequences of slc26a1 and slc26a2 were generated using gB LOCK gene fragments (Int egrat ed DNA technology, Coralville, IA) in the plasmid vector pIRESpuro3 (Takara, San J ose, CA). […]
PBS. […] Background-corrected, area-integrat ed single cell fluorescence was calcul ated for determination of slc26a1 / slc26a2 activit y from the rate of fluorescence quenching. […]

FRT cells = test: Cytotoxicity, Alamar Blue assay; assay type: cell-based, rat; conditions: 10 μM, 48 h
Experimental: FRT cells were plated in black-walled, clear-bottom tissue culture plates at a density of 20,000 cells/well. After 24 hours in culture, cells were incubated with 10 μM PAT1inh-B01, 0.1% DMSO (vehicle control), or 20 % DMSO (positive control) for 48 hours for assay of cell viability using Alamar Blue (Thermo Fischer Scientific) according to the manufacturer’s instructions.

Structure (SMILES): Cc1c(Br)c(C(F)(F)F)nn1CC(=O)N1CCc2nc3cc(-c4ccccc4)[nH]n3c(=O)c2C1 [PAT1inh-B01]
- effect on slc26a2 activity (slc26a2): did not affect
- cytotoxicity (cell viability, Alamar Blue) (FRT cells): did not cause cytotoxicity
